{"source": "patent US20120251628A1", "about": "“COMPOSITIONS AND METHODS FOR TREATMENT OF CANCER” (priority 2011, published 2012)", "key": {"[1]": {"test": "Histologic analysis of normal organ tissues for ischemic damage", "format": "in vivo, mice", "conditions": "10 mg/kg intraperitoneal; 8, 24 and 48 hours after injection", "experimental": "Seven-week-old, female, specific-pathogen-free (BALB/c) white mice (weight: approximately 20 g) purchased from ORIENTBIO Inc. (Seoul Korea) were subcutaneously injected with 2×10^6 cells of the CT26 colon carcinoma cell line per mouse. When the tumor size reached 3 mm in diameter, the control group was injected with a phosphate buffered saline (PBS) solution with 5% dextrose while the experimental group was intraperitoneally injected with 100 μL of KML001 at a concentration of 10 mg/kg with 5% dextrose. At 8, 24 and 48 hours after injection, liver, spleen and tumor tissue samples were taken and placed into a 37% solution of formaldehyde for 24 hours. The tissues were inserted into paraffin and sectioned at 4 μm on a microtome (made by SLEE MAINZ GmbH in Germany) and the sections were placed on slides."}, "α-tubulin": {"system": "α-tubulin", "test": "Western blot of isolated (soluble) and polymerized tubulin from HUVECs", "format": "cell-based, Human", "conditions": "1 uM, 10 uM and 20 uM, 24 hours, higher concentration", "source_text": "To investigate whether such apoptosis phenomenon is caused by a cytoskeletal abnormality that affects cell division and cell differentiation, the change in α-tubulin expression in the cytoskeleton was identified by the division of tubulin into isolated form (soluble, S) and polymerized form (ppt, P). HUVECs (obtained from ATCC) were cultivated in F25 culture flasks containing F-12K (Sigma) medium supplemented with 10% FBS and endothelial cell growth supplement (ECGS, E2759, Sigma). After cultivation for 24 hours, the cells were treated with sodium meta arsenite at a concentration of 1 uM, 10 uM and 20 uM. Cells were collected 24 hours after treatment. The collected cells were suspended in RIPA buffer (50 mM Tris, pH 7.5, 150 mM NaCl, 1% NP-40, 0.5% sodium deoxychloate, 0.1% SDS, protease inhibitor) at room temperature for 10 minutes and then centrifuged for 30 minutes at 22° C. at 13,200 rpm to separate the supernatant liquid from the sediment. RIPA solution was added to the sediment in the same amount and the sediment was crushed using an ultrasonic cell crusher. The protein from the supernatant liquid and the sediment were assayed using a BCA protein kit (Thermo, 23227) and then the same amount of protein (3 μg) was mixed with protein sample buffer and it was warmed up in a water bath in boiling water at 100° C. for five minutes. SDS-PAGE was conducted on a 10% gel. […]"}, "HUVECs": {"system": "HUVECs", "test": "Apoptosis of HUVECs (Annexin-V FACS analysis)", "format": "cell-based, Human", "experimental": "To determine the effect, if any, of sodium meta arsenite on vascularization, the effect on endothelial cells (which are essential for vascularization) was first analyzed. Human umbilical cord vein endothelial cells (HUVECs offered by ATCC) were cultivated in 96-well microculture plates containing F-12K (Sigma) medium supplemented with 10% FBS and endothelial cell growth supplement (ECGS, E2759, Sigma). For the cytotoxicity test of the cells after 24 hour cultivation, the cells were treated with KML001 at the concentration of 0.1 nM, 1 nM, 10 nM, 1 uM, 10 uM and 100 uM. At 24 hours and 48 hours after treatment, 20 μl/well of CellTiter 96® Aqueous One Solution (by Promega) Reagent was added on each well and reacted for one hour at 37° C. The reacted 96-well plates were measured at 490 nm using a spectrophotometer (UVStar, Greiner Bio-One). To analyze apoptosis of HUVECs, the cells were cultivated on F25 flasks using the same method as discussed above and then the cells were treated with sodium meta arsenite at a concentration of 10 uM, 20 uM and 50 uM. Cells were collected after 24 and 48 hours. The collected cells were stained for 30 minutes with Annexin-V for FACS analysis. After two washes, the cells were analyzed by using flow cytometry (FACSCALIBUR, BECTON DICLINSON)."}, "β-tubulin mRNA": {"system": "β-tubulin mRNA", "test": "RT-PCR of tubulin mRNA from HUVECs", "format": "cell-based, Human", "conditions": "5 uM, 10 uM and 20 uM, 24 hours and 48 hours after treatment", "experimental": "(§1) To determine whether the level of tubulin gene expression is responsible for the change in amount of tubulin protein observed in Example 5, RT-PCR was performed. HUVECs (obtained from ATCC) were cultivated in F25 culture flasks containing F-12K (Sigma) medium supplemented with 10% FBS and endothelial cell growth supplement (ECGS, E2759, Sigma). After cultivation for 24 hours, the cells were treated with sodium meta arsenite at concentrations of 5 uM, 10 uM and 20 uM. […] Total RNA was extracted using Trizol (Invitrogen, USA) and alcohol precipitation. 1 ug of total RNA was used for reverse transcriptase and dT was used for cDNA synthesis. The primer for synthesized cDNA and α-tubulin (sense: 5′-ATTGTGCCTTCATGGTAGAC-3′ (SEQ ID NO. 1), antisense: 5′-TTCTGTCAGGTCAACATTCA-3′) (SEQ ID NO. 2), the primer for β-tubulin (sense: 5′-AACGACCTCGTCTCTGAGTA-3′ (SEQ ID NO. 3), antisense: 5′-AATTCTGAGGGAGAGGAAAG-3′) (SEQ ID NO. 4) and GAPDH primer set (sense: 5′-ACCACTTTGTCAAGCTCATT-3′ (SEQ ID NO. 5), antisense: 5′-AGTGAGGGTCTCTCTCTTCC-3′) (SEQ ID No. 6) were used for denaturation at 95° C. for four minutes. After the reactions at 23 cycles at 95° C. for 30 seconds, at 52° C. for 30 seconds and at 72° C. for 40 seconds, PCR was performed at 72° C. for four minutes. The PCR product was confirmed by 1.5% agarose gel electrophoresis."}, "α-tubulin mRNA": {"system": "α-tubulin mRNA", "test": "RT-PCR of tubulin mRNA from HUVECs", "format": "cell-based, Human", "conditions": "5 uM, 10 uM and 20 uM, 24 hours and 48 hours after treatment", "experimental": "as §1"}, "tumors": {"system": "tumors", "test": "Cell and animal experiments with KML001 injected after tumors were generated", "format": "in vivo"}, "[2]": {"conditions": "injected after tumors were generated"}}}
{"smiles": "O=[As][O-].[Na+]", "note": "[sodium meta arsenite]", "values": [{"measurement": "ischemic damage in liver, spleen or kidney tissues", "setting": "[1]", "result": "No ischemic damage was observed"}, {"measurement": "protein level in sediment (polymerized tubulin)", "setting": "α-tubulin", "result": "reduced the protein level"}, {"measurement": "protein level in supernatant liquid (isolated tubulin)", "setting": "α-tubulin", "result": "reduced the protein level"}, {"measurement": "apoptosis, dependence on concentration", "setting": "HUVECs; 10 uM, 20 uM and 50 uM", "result": "concentration dependent, increasing with increased concentration"}, {"measurement": "apoptosis over time", "setting": "HUVECs; 24 and 48 hours exposure", "result": "increased over time"}, {"measurement": "β-tubulin mRNA level", "setting": "β-tubulin mRNA", "result": "no change"}, {"measurement": "α-tubulin mRNA levels", "setting": "α-tubulin mRNA", "result": "no change"}, {"measurement": "apoptosis", "setting": "tumors; cell experiments and animal experiments", "result": "occurred dose-dependently"}, {"measurement": "necrotic phenomena in tumor tissues", "setting": "tumors; [2]", "result": "occurred"}, {"measurement": "reduction in tumor volume", "setting": "tumors; [2]", "result": "no effect"}]}
